Experiments:
BTK = BTK (Homo sapiens (Human), UniProt Q06187); assay: Jump dilution experiment, BTK; assay type: biochemical; settings: 1.5-h incubation, 142 nM BTK, 10×IC50 compound, 100-fold dilution
Protocol: Sample containing only DMSO vehicle was used as a positive (full activity) control while sample with no enzyme was used as a negative (zero activity) control. After the preincubation, the mixture was diluted 100-fold into a reaction mixture containing 1 uM biotinylated substrate and 28 uM ATP and the reaction was allowed to proceed for various time points (2, 5, 10, 15, 20, 30, 45 and 60 min), at which the reaction was terminated by adding 1 ul of 0.5 M EDTA. 62.5 nM SA-XL665 and 100-fold diluted europium labelled antibody (Eu-Ab), diluted in 1× detection buffer, was added as detection mixture. After 60 min of incubation, the fluorescence emission was measured at 620 nm and 665 nm. The ratio of Em 665 nm to Em 620 nm was proportional to the amount of substrate phosphorylated by the kinase.

EGFR = EGFR (Homo sapiens (Human), UniProt P00533); assay: Time-dependent inhibition of EGFR (HTRF); assay type: biochemical; settings: pre-incubation 0-60 min; for Time-dependent inhibition of EGFR: product formation versus pre-incubation time: mono-exponential decay fit
EGFR, sequence (P00533 25-1210): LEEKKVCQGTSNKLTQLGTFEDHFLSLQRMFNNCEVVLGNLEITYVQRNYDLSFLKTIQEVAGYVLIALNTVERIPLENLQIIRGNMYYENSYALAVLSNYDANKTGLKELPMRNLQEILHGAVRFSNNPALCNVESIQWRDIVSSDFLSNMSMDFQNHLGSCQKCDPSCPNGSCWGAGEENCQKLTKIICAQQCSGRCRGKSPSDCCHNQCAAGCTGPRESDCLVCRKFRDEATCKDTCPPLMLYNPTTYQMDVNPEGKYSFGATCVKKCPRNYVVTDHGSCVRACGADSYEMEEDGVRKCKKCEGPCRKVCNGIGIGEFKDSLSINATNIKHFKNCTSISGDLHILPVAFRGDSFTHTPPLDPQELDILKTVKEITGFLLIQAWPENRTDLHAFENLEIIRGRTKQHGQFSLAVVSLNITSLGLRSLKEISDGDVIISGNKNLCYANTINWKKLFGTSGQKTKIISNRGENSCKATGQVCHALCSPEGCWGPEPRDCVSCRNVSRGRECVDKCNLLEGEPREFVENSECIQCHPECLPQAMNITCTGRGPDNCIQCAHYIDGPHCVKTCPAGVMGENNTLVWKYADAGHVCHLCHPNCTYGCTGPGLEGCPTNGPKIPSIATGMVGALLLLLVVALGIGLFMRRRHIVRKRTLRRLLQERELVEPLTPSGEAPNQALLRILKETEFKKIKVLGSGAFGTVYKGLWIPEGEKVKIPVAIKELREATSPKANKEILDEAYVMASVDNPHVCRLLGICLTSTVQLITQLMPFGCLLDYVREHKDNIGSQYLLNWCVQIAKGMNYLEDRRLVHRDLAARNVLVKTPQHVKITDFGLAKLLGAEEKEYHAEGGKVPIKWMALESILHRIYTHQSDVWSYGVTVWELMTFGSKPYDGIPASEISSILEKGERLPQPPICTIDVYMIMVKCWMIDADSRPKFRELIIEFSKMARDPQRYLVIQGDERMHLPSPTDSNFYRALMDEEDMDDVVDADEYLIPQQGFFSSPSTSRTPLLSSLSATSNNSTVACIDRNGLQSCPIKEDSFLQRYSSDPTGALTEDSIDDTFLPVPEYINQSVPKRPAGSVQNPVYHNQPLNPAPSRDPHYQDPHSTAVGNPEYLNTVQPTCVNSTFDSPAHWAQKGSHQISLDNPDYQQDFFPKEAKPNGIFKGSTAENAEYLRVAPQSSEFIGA
Protocol: For the time-dependent inhibition experiments, the activity of EGFR kinase was monitored using a HTRF® KinEASE-TK kit from Cisbio (62TK0PEC) as described above. Six compounds showing higher potency during dose response analysis against EGFR, were further evaluated for their change in inhibitory potency over time. Ibrutinib was used as a positive control. The selected compounds were pre incubated with the kinase at 11 different concentrations, ranging from […] to 25 uM final compound concentrations. The pre incubation times were 0, 2, 5, 10, 15, 30, 45 and 60 min. After the preincubation, the reaction was initiated by adding biotinylated substrate and ATP and the reaction was allowed to proceed for 45 min. […] The reaction was terminated by adding 31.25 nM SA-XL665 and 100 fold diluted europium labelled antibody (Eu-Ab), diluted in 1× detection buffer that contained EDTA. After 60 min of incubation, the fluorescence emission was measured at 620 nm and 665 nm. The ratio of Em 665 nm to Em 620 nm was proportional to the amount of substrate phosphorylated by the kinase. Product formation vs pre-incubation time data were fitted to a one phase exponential decay equation using GraphPad Prism. The same product formation vs inhibitor concentration data were also fitted to a log(antagonist) vs. response—Variable slope equation in GraphPad Prism to provide IC50 values at different pre incubation times.

[1] = target: His-tagged BTK protein (SEQ ID NO: 1) (Homo sapiens (Human), UniProt Q06187); assay: Intact mass analysis (LC-MS/MS) of covalent modification; assay type: binding; settings: His-tagged BTK (unmodified 32,650 Da) incubated with compound
His-tagged BTK protein (SEQ ID NO: 1), sequence (Q06187 other isoform, or with tags, fused parts or gaps): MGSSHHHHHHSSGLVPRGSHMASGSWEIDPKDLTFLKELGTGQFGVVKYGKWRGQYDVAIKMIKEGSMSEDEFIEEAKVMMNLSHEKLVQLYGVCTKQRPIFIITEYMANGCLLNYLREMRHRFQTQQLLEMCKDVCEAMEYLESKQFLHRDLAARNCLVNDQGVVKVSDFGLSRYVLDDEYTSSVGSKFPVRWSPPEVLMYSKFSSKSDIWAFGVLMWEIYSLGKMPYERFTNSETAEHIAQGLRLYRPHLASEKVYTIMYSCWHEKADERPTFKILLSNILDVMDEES
Protocol: The covalent modification of the proteins with the compounds were evaluated using intact mass analysis by liquid chromatography-mass spectrometry instrument (LC-MS/MS).
The reaction solution (20 μL) was prepared in 96-well plate and contained the protein (2 μM), the compound (100 μM), HEPES buffer (20 mM, pH 8), 2% DMSO, 2% glycerol, and 150 mM NaCl. The reaction was allowed to proceed for 24 h at 25° C. The reaction solution (1 μL) was injected into the LC/MS/MS without any further sample preparation.
The LC-MS/MS instrument comprises of a Waters G2-XS quadrupole-time of flight (QTof) mass spectrometer and a Waters Acuity I-class Ultra-High Performance Liquid Chromatography (UPLC) system. The I-class UPLC system includes a binary solvent manager (BSM), and a Acquity sample manager (SM). The mobile phase consisted of: A) 0.1% (v/v) formic acid in MilliQ water; B) 0.1% (v/v) formic acid acetonitrile. Gradients were run over 5 min and proceeded as follows: A:B, 85:15, 0.0-0.7 min, 85:15→15:85, 0.7-1.5 min, 10:90, 1.5-4 min, 10:90→85:15, 4-4.5 min, 85:15, 4.5-5 min. The analytical column was a Waters BEH C4 column 1.7 μm (50×1 mm) column with pore sizes of […]. The TOF MS data was collected in positive ion mode (m/z of 400-2000 Da) using MassLynx software (Waters).
The spectral deconvolution was performed using UNIFI software (Waters). The added mass of the protein upon covalent modification to cysteine residues were specified. Multiple modification of up to 8 cysteine was allowed. All the adducts with signal intensities of <2% of the base peak were ignored. The % modification was calculated as the adduct signal intensity over the total intensities of the protein peaks and the adducts.

BTK, sequence (Q06187 whole entry): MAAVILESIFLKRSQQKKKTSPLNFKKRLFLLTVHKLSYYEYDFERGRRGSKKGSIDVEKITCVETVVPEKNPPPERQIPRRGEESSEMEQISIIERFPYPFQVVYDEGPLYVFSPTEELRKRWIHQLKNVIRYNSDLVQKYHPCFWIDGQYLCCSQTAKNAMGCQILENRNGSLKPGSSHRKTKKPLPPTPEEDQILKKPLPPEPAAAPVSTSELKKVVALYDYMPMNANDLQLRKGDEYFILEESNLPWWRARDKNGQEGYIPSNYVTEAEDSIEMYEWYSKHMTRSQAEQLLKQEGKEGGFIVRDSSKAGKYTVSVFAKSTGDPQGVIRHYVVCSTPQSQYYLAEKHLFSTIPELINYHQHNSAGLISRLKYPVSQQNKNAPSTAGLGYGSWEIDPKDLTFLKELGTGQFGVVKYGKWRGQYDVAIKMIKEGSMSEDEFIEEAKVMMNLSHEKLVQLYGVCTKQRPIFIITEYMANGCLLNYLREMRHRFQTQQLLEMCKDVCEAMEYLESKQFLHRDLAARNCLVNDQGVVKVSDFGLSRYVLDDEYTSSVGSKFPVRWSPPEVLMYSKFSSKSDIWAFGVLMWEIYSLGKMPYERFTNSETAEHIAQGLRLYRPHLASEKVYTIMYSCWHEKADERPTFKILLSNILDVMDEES

For CS(=O)(=O)c1c(F)c(F)c(F)c(F)c1C(=O)NCCn1nc(-c2ccc(Oc3ccccc3)cc2)c2c(N)ncnc21 [Compound I-38, N-(2-(4-amino-3-(4-phenoxyphenyl)-1H-pyrazolo[3,4-d]pyrimidin-1-yl)ethyl)-2,3,4,5-tetrafluoro-6-(methylsulfonyl)benzamide], the “residual activity of BTK after jump dilution, relative to enzyme incubated with DMSO alone” value (BTK) was “less than 1%”.
Nc1ncnc2c1c(-c1ccc(Oc3ccccc3)cc1)nn2CCCNC(=O)c1c(F)c(F)c(F)c(F)c1S(N)(=O)=O [Compound I-34, N-(3-(4-amino-3-(4-phenoxyphenyl)-1H-pyrazolo[3,4-d]pyrimidin-1-yl)propyl)-2,3,4,5-tetrafluoro-6-sulfamoylbenzamide] was tested, and the “residual activity of BTK after jump dilution, relative to enzyme incubated with DMSO alone” value (BTK) was “less than 1%”.
With C[S+]([O-])c1c(F)c(F)c(F)c(F)c1Nc1cc2c(Nc3ccc(F)c(Cl)c3)ncnc2cc1O[C@H]1CCOC1 (stereo partly drawn) [Compound I-4, N^4-(3-chloro-4-fluorophenyl)-N^6-(2,3,4,5-tetrafluoro-6-(methylsulfinyl)phenyl)-7-(((S)-tetrahydrofuran-3-yl)oxy)quinazoline-4,6-diamine] the “Time-dependent inhibition of EGFR: product formation versus pre-incubation time” value (EGFR) was “concentration-dependent first order loss of enzyme activity” and the “Time-dependent inhibition of EGFR: IC50 values versus pre-incubation time” value (EGFR) was “decrease as pre-incubation times increase”.
CS(=O)(=O)c1c(F)c(F)c(F)c(F)c1Nc1cc2c(Nc3ccc(F)c(Cl)c3)ncnc2cc1O[C@H]1CCOC1 [Compound I-2, (S)—N^4-(3-chloro-4-fluorophenyl)-N^6-(2,3,4,5-tetrafluoro-6-(methylsulfonyl)phenyl)-7-((tetrahydrofuran-3-yl)oxy)quinazoline-4,6-diamine] was tested, and the “Time-dependent inhibition of EGFR: product formation versus pre-incubation time” value (EGFR) was “concentration-dependent first order loss of enzyme activity” and the “Time-dependent inhibition of EGFR: IC50 values versus pre-incubation time” value (EGFR) was “decrease as pre-incubation times increase”.
Nc1ncnc2c1c(-c1ccc(Oc3ccccc3)cc1)nn2[C@@H]1CCN(S(=O)(=O)c2c(F)c(F)c(F)c(F)c2OCF)C1 [Compound I-24, (R)-3-(4-phenoxyphenyl)-1-(1-((2,3,4,5-tetrafluoro-6-(fluoromethoxy)phenyl)sulfonyl)pyrrolidin-3-yl)-1H-pyrazolo[3,4-d]pyrimidin-4-amine] was tested, and the “covalent adduct mass (intact mass analysis, modification by one molecule)” value [1] was 33,263 Da.
CN(C)S(=O)(=O)c1c(F)c(F)c(F)c(F)c1C(=O)NCCn1nc(-c2ccc(Oc3ccccc3)cc2)c2c(N)ncnc21 [Compound I-40, N-(2-(4-amino-3-(4-phenoxyphenyl)-1H-pyrazolo[3,4-d]pyrimidin-1-yl)ethyl)-2-(N,N-dimethylsulfamoyl)-3,4,5,6-tetrafluorobenzamide] was tested, and the “residual activity of BTK after jump dilution, relative to enzyme incubated with DMSO alone” value (BTK) was “less than 1%”.
C[S+]([O-])c1c(F)c(F)c(F)c(F)c1C(=O)Nc1cc2c(Nc3ccc(F)c(Cl)c3)ncnc2cc1OC1CCOC1 (centres unmarked) [Compound I-3] was tested, and the “Time-dependent inhibition of EGFR: product formation versus pre-incubation time” value (EGFR) was “concentration-dependent first order loss of enzyme activity” and the “Time-dependent inhibition of EGFR: IC50 values versus pre-incubation time” value (EGFR) was “decrease as pre-incubation times increase”.
In the case of C[S@+]([O-])c1c(F)c(F)c(F)c(F)c1C(=O)N1CC(n2nc(-c3ccc(Oc4ccccc4)cc3)c3c(N)ncnc32)C1 (racemic) [Compound I-37, (3-(4-amino-3-(4-phenoxyphenyl)-1H-pyrazolo[3,4-d]pyrimidin-1-yl)azetidin-1-yl)(2,3,4,5-tetrafluoro-6-(methylsulfinyl)phenyl)methanone], the “Time-dependent inhibition of EGFR: product formation versus pre-incubation time” value (EGFR) is reported as “concentration-dependent first order loss of enzyme activity”, the “Time-dependent inhibition of EGFR: IC50 values versus pre-incubation time” value (EGFR) is reported as “decrease as pre-incubation times increase” and the “residual activity of BTK after jump dilution, relative to enzyme incubated with DMSO alone” value (BTK) is reported as “less than 1%”.
In the case of CN(CCn1nc(-c2ccc(Oc3ccccc3)cc2)c2c(N)ncnc21)C(=O)c1c(F)c(F)c(F)c(F)c1S(N)(=O)=O [Compound I-33, N-(2-(4-amino-3-(4-phenoxyphenyl)-1H-pyrazolo[3,4-d]pyrimidin-1-yl)ethyl)-2,3,4,5-tetrafluoro-N-methyl-6-sulfamoylbenzamide], the “residual activity of BTK after jump dilution, relative to enzyme incubated with DMSO alone” value (BTK) is reported as “less than 1%”.
